Assay results published in PubChem BioAssay AID1963848 (Molecular Pharmacology Branch, DTP, NCI, 2024).

Tested on: 379773-124-R-J2-PDC spheroid viability
Assay: Anticancer human tumor 379773-124-R-J2-PDC patient-derived endometrial carcinoma cell line growth inhibition [POLQ]
Conditions: spheroids with HUVEC and MSC; for IC50: curve of first compound; for viability, T/C: stronger effect = lower value
Procedure: Multicellular complex tumor spheroid response to Polymerase (POL) inhibitors (novobiocin, ART-558, RP6685) in combination with a variety of drugs and investigational agents in selected tumor cell lines
The POL inhibitors (novobiocin, ART-558, and RP6685) were evaluated both individually and in combination with standard of care and investigational anticancer small molecules within a complex spheroid model of solid tumors. . Complex spheroids include a stromal component modeled by human endothelial cells (HUVEC) and fibroblasts modeled by human mesenchymal stem cells (MSCs). The concentration ranges selected for each drug and investigational agent were based upon clinically achievable concentrations if the clinical Cmax of the agent was known.
Compounds. The drugs and investigational agents: novobiocin (NSC847541), ART-558 (NSC835418), RP-6685 (NSC848927), peposertib (NSC802822), ceralasertib (NSC780249), elimusertib (NSC800525), camonsertib (NSC841442), AZD-1390 (NSC803789), olaparib (NSC753686), talazoparib (NSC767125), rucaparib (NSC756644), sotorasib (NSC818433), MRTX-1133 (NSC836407), SN-38 (NSC673596), topotecan (NSC609699), epotoside (NSC141540), doxorubicin (NSC123127), gemcitabine (NSC613327), 5-fluorouracil (NSC19893), paclitaxel (NSC125973), vemurafenib (NSC761431), MSA-2 (NSC828583), SN-011 (NSC837082), adavosertib (NSC754352), prexasertib (NSC758257), carboplatin (NSC241240) and oxaliplatin (NSC266046), were obtained from the National Cancer Institute (NCI) Developmental Therapeutics Program Chemical Repository (21). The FDA-approved anticancer drug set is available from the Developmental Therapeutics Program at https://dtp.cancer.gov/organization/dscb/obtaining/. […] The stock solutions were prepared in dimethyl sulfoxide (DMSO, Sigma-Aldrich, St. Louis, MO, cat. D2650), except for the platinum compounds which were prepared in saline (Quality Biological, Gaithersburg, MD, cat. 114-055-101), at 800-fold the tested concentration and stored at -70 degrees C prior to their use. All drugs and investigational agents were tested over a range starting from a high concentration at or near the clinical Cmax and decreasing in half-log increments. If the clinical Cmax for an agent had not been determined, the highest concentration tested was 10 microM, except for SN-38, which was tested at a high concentration of 1 microM.
Cell Culture. All cells were maintained in an incubator at 37 degrees C and 5% CO2 with 95% humidity. The PDC lines were cultured according to standard operating procedures established by the NCI PDMR (https://pdmr.cancer.gov). Table 3 of the manuscript, lists the cell lines along with the number of the three cell types plated to form the mct-spheroids and media for tumor cell growth. After thawing, all PDC lines, except 997537-175-T-J1-PDC and 415267-285-R-J2-PDC, were cultured in Matrigel-coated flasks prepared with a working solution of 1X Ham's F-12 nutrient mix, without supplementation (Thermo Fisher Scientific, cat. 11765054), 100 U/mL penicillin-streptomycin (Thermo Fisher Scientific, cat. 15140122), and 2.5% Matrigel (Corning Inc., Corning, NY, cat. 354248) for the first three passages. The two PDC lines 997537-175-T-J1-PDC and 415267-285-R-J2-PDC were cultured on uncoated flasks. The 857933-349-R-J2-PDC line was cultured in 6C/Colon 1B media containing advanced DMEM/F-12 (Thermo Fisher Scientific, cat. 12634028), 10 mM HEPES (Thermo Fisher Scientific, cat. 15630080), 1X GlutaMAX supplement (Thermo Fisher Scientific, cat. 35050061), 0.1 mg/mL primocin (InvivoGen, San Diego, CA, cat. ant-pm-2), 10% defined fetal bovine serum, heat inactivated (HyClone Laboratories Inc., Logan, UT, cat. SH30070.03HI), 50% L-WRN conditioned media (ATCC, cat. CRL-3276), 1.25 mM N-Acetyl-L-cysteine (Sigma-Aldrich, cat. A9165), 10 mM nicotinamide (Sigma-Aldrich, cat. N0636), 1X B-27 supplement (Thermo Fisher Scientific, cat. 17504044), 1X N-2 supplement (Thermo Fisher Scientific, cat. […]
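Note: spheroids exposed to drugs for seven days before readout.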
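Throughout, for viability, T/C: percent viability relative to DMSO vehicle control taken as 100%.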

## O=c1[nH]cc(F)c(=O)[nH]1 + Cc1cccc(N(C)C(=O)C2C(O)CCN2c2nc(C)cc(C(F)(F)F)c2C#N)c1
Second compound 0.0316 µM
  IC50: > 10 µM
Second compound 0.1 µM
  IC50: > 10 µM
Second compound 0.316 µM
  IC50: > 10 µM
Second compound 1 µM
  IC50: > 10 µM
Second compound 3.16 µM
  IC50: > 10 µM
Second compound 10 µM
  IC50: > 10 µM
Second compound 0.0316 µM, first compound 0.0316 µM
  viability, T/C: 95%
Second compound 0.0316 µM, first compound 0.1 µM
  viability, T/C: 88.5%
Second compound 0.0316 µM, first compound 0.316 µM
  viability, T/C: 88.2%
Second compound 0.0316 µM, first compound 1 µM
  viability, T/C: 77.2%
Second compound 0.0316 µM, first compound 3.16 µM
  viability, T/C: 76.6%
Second compound 0.0316 µM, first compound 10 µM
  viability, T/C: 61.5%
Second compound 0.1 µM, first compound 0.0316 µM
  viability, T/C: 95.5%
Second compound 0.1 µM, first compound 0.1 µM
  viability, T/C: 90.7%
Second compound 0.1 µM, first compound 0.316 µM
  viability, T/C: 93.4%
Second compound 0.1 µM, first compound 1 µM
  viability, T/C: 85.8%
Second compound 0.1 µM, first compound 3.16 µM
  viability, T/C: 82%
Second compound 0.1 µM, first compound 10 µM
  viability, T/C: 58.7%
Second compound 0.316 µM, first compound 0.0316 µM
  viability, T/C: 91.8%
Second compound 0.316 µM, first compound 0.1 µM
  viability, T/C: 88.7%
Second compound 0.316 µM, first compound 0.316 µM
  viability, T/C: 94%
Second compound 0.316 µM, first compound 1 µM
  viability, T/C: 74.5%
Second compound 0.316 µM, first compound 3.16 µM
  viability, T/C: 82%
Second compound 0.316 µM, first compound 10 µM
  viability, T/C: 68.8%
Second compound 1 µM, first compound 0.0316 µM
  viability, T/C: 92.2%
Second compound 1 µM, first compound 0.1 µM
  viability, T/C: 90.4%
Second compound 1 µM, first compound 0.316 µM
  viability, T/C: 82.2%
Second compound 1 µM, first compound 1 µM
  viability, T/C: 86.3%
Second compound 1 µM, first compound 3.16 µM
  viability, T/C: 74.2%
Second compound 1 µM, first compound 10 µM
  viability, T/C: 67.7%
Second compound 3.16 µM, first compound 0.0316 µM
  viability, T/C: 84.9%
Second compound 3.16 µM, first compound 0.1 µM
  viability, T/C: 97.8%
Second compound 3.16 µM, first compound 0.316 µM
  viability, T/C: 79.8%
Second compound 3.16 µM, first compound 1 µM
  viability, T/C: 76.5%
Second compound 3.16 µM, first compound 3.16 µM
  viability, T/C: 77.3%
Second compound 3.16 µM, first compound 10 µM
  viability, T/C: 52.9%
Second compound 10 µM, first compound 0.0316 µM
  viability, T/C: 78.7%
Second compound 10 µM, first compound 0.1 µM
  viability, T/C: 96.6%
Second compound 10 µM, first compound 0.316 µM
  viability, T/C: 96.4%
Second compound 10 µM, first compound 1 µM
  viability, T/C: 83%
Second compound 10 µM, first compound 3.16 µM
  viability, T/C: 75%
Second compound 10 µM, first compound 10 µM
  viability, T/C: 56.2%
